Patent publication US10752587B2, “Homobispiperidinyl derivatives as liver X receptor beta agonists, compositions and their use” (Merck Sharp & Dohme Corp., priority 2015, dated 2020)

Columns and labels:
[1] = biological target: T1, glutathione-S-transferase (GST) tagged LXRbeta LBD (ligand binding domain) (Homo sapiens, UniProt P55055); experiment: LanthaScreen TR-FRET Liver X Receptor Coactivator Assay, co-activator recruitment to LXRbeta LBD; assay type: biochemical; settings: for Emax: read-out: LXR beta Activity @ max dose (%); for EC50: potency (Inflection Point, IP), co-activator recruitment to LXRbeta LBD, in relation to T0901317, read-out: LXR beta IP
T1 construct: purchased Invitrogen pv4658.pps
T1 sequence (P55055 222-460 limits assumed): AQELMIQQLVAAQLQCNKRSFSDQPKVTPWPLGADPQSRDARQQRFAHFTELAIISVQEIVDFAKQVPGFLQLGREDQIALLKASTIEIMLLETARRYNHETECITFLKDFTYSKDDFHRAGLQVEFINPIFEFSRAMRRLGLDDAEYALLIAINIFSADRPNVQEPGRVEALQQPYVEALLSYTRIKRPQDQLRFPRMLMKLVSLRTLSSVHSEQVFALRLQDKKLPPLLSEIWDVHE
Summary of the method: (§1)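 Compound-induced coactivator recruitment by the GST-fused ligand binding domain, detected as TR-FRET between Tb-labelled anti-GST antibody and fluorescein-tagged coactivator peptide after room-temperature incubation. IP and Emax expressed versus T0901317 as reference agonist.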

[2] = biological target: T2, glutathione-S-transferase (GST) tagged LXRalpha LBD (ligand binding domain) (Homo sapiens, UniProt Q13133); experiment: LanthaScreen TR-FRET Liver X Receptor Coactivator Assay, co-activator recruitment to LXRalpha LBD; assay type: biochemical; settings: for Emax: read-out: LXR alpha Activity @ max dose (%); for LXR alpha IP (nM) / EC50: potency (Inflection Point, IP), co-activator recruitment to LXRalpha LBD, in relation to T0901317; for EC50: read-out: LXR alpha IP
T2 construct: purchased Invitrogen pv4655
T2 sequence (Q13133 209-447 limits assumed): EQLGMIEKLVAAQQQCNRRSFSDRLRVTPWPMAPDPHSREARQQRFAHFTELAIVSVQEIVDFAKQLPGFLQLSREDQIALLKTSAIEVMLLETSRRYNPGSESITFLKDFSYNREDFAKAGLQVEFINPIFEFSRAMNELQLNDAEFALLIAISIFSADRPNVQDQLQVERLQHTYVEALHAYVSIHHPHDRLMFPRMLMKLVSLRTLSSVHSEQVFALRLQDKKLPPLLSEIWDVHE
Summary of the method: as §1

[3] = efficacy at max dose, in relation to reference dual agonist T0901317

| Compound | Emax [1, 3] | EC50 [1] | Emax [2, 3] | LXR alpha IP (nM) [2] | EC50 [2] | LXR beta Activity @ max dose (%) [1, 3] | LXR alpha Activity @ max dose (%) [2, 3] |
| --- | --- | --- | --- | --- | --- | --- | --- |
| COc1cccc([C@@](O)(C(=O)N2CCC(CC3CCN(c4cnc(C(=O)N(C)C)c(C)c4)CC3)CC2)C(F)(F)F)c1 [Example 2-2, N,N,3-trimethyl-5-[4-({1-[(2R)-3,3,3-trifluoro-2-hydroxy-2-(3-methoxy-phenyl)propanoyl]piperidin-4-yl}methyl)piperidin-1-yl]pyridine-2-carboxamide] | 43% | 155 nM | 5% | NO IP |  |  |  |
| CC(C)Oc1cccc([C@@](O)(C(=O)N2CCC(CC3CCN(c4ccc(C(=O)N(C)C)cc4)CC3)CC2)C(F)(F)F)c1 [Example 2-135, N,N-dimethyl-4-{4-[(1-{(2R)-3,3,3-trifluoro-2-hydroxy-2-[3-(1-methylethoxy)phenyl]propanoyl}piperidin-4-yl)methyl]piperidin-1-yl}benzamide] | 63% | 44 nM | 3% | NO IP |  |  |  |
| COc1cccc([C@@](O)(C(=O)N2CCC(OC3CCN(c4ccc(C(=O)N(C)C)c(Cl)n4)CC3)CC2)C(F)(F)F)c1 [Example 7-153, 2-chloro-N,N-dimethyl-6-[4-({1-[(2R)-3,3,3-trifluoro-2-hydroxy-2-(3-methoxyphenyl)propanoyl]piperidin-4-yl}oxy)piperidin-1-yl]pyridine-3-carboxamide] | 100% | 25 nM | 29% |  | 890 nM |  |  |
| CN(C)C(=O)c1ccc(N2CCC(OC3CCN(C(=O)[C@](O)(c4cc(Cl)cc(Cl)c4)C(F)(F)F)CC3)CC2)cc1Cl [Example 2-46, 2-chloro-4-[4-({1-[(2R)-2-(3,5-dichloro-phenyl)-3,3,3-trifluoro-2-hydroxy-propanoyl]piperidin-4-yl}oxy)piperidin-1-yl]-N,N-dimethyl-benzamide] | 102% | 9 nM | 31% |  | 216 nM |  |  |
| COc1cc(F)cc([C@@](O)(C(=O)N2CCC(CC3CCN(c4ccc(C(=O)N(C)C)c(Cl)n4)CC3)CC2)C(F)(F)F)c1 [Example 7-101, 2-chloro-N,N-dimethyl-6-[4-({1-[(2R)-3,3,3-trifluoro-2-(3-fluoro-5-methoxyphenyl)-2-hydroxypropanoyl]piperidin-4-yl}methyl)piperidin-1-yl]pyridine-3-carboxamide] | 84% | 4 nM | 22% |  | 41 nM |  |  |
| CN(C)C(=O)c1ccc(N2CCC(CC3CCN(C(=O)[C@](N)(c4cc(Cl)cc(Cl)c4)C(F)(F)F)CC3)CC2)cc1Cl [Example 2-117, 4-[4-({1-[(2R)-2-amino-2-(3,5-dichloro-phenyl)-3,3,3-trifluoro-propanoyl]piperidin-4-yl}methyl)piperidin-1-yl]-2-chloro-N,N-dimethyl-benzamide] | 125% | 22 nM | 29% |  | 1010 nM |  |  |
| COc1cc(Cl)cc([C@@](O)(C(=O)N2CCC(CC3CCN(c4ccc(C(=O)N(C)C)c(Cl)n4)CC3)CC2)C(F)(F)F)c1 [Example 7-107, 2-chloro-6-[4-({1-[(2R)-2-(3-chloro-5-methoxyphenyl)-3,3,3-trifluoro-2-hydroxypropanoyl]piperidin-4-yl}methyl)piperidin-1-yl]-N,N-dimethylpyridine-3-carboxamide] | 26% | 3 nM | 0% | NO IP |  |  |  |
| Cc1cc(N2CCC(CC3(C)CCN(C(=O)[C@](O)(c4cccc(Cl)c4)C(F)(F)F)CC3)CC2)ccc1C(=O)N(C)C [Example 2-76, 4-[4-({1-[(2R)-2-(3-chloro-phenyl)-3,3,3-trifluoro-2-hydroxy-propanoyl]-4-methylpiperidin-4-yl}methyl)piperidin-1-yl]-N,N,2-trimethyl-benzamide] | 46% | 14 nM | 4% | NO IP |  |  |  |

The next lines start with the values.

| Emax [1, 3] | EC50 [1] | Emax [2, 3] | LXR alpha IP (nM) [2] | EC50 [2] | LXR beta Activity @ max dose (%) [1, 3] | LXR alpha Activity @ max dose (%) [2, 3] | Compound |
| --- | --- | --- | --- | --- | --- | --- | --- |
| 67% | 49 nM | 15% |  | 575 nM |  |  | Cc1ccsc1C(O)(C(=O)N1CCC(CC2CCN(c3ccc(C(=O)N(C)C)c(Cl)c3)CC2)CC1)C(F)(F)F (stereo not shown) [Example 2-38, 2-chloro-N,N-dimethyl-4-[4-({1-[3,3,3-trifluoro-2-hydroxy-2-(3-methyl-thiophen-2-yl)propanoyl]piperidin-4-yl}methyl)piperidin-1-yl]benzamide] |
| 65% | 28 nM | 19% |  | 762 nM |  |  | CNC(=O)c1ccc(N2CCC(CC3CCN(C(=O)C(O)(c4cccc(C)c4)C(F)(F)F)CC3)CC2)cc1Cl (stereo not shown) [Example 7-36, 2-chloro-N-methyl-4-[4-({1-[3,3,3-trifluoro-2-hydroxy-2-(3-methylphenyl)propan-oyl]piperidin-4-yl}methyl)piperidin-1-yl]benzamide] |
| 63% | 95 nM | 34% |  | 541 nM |  |  | CN(Cc1cncs1)C(=O)c1ccc(N2CCC(CC3CCN(C(=O)[C@](O)(c4ccccc4)C(F)(F)F)CC3)CC2)cc1Cl [Example 4-20, 2-chloro-N-methyl-N-(1,3-thiazol-5-ylmethyl)-4-[4-({1-[(2R)-3,3,3-trifluoro-2-hydroxy-2-phenylpropanoyl]piperidin-4-yl}methyl)piperidin-1-yl]benzamide] |
| 87% | 38 nM | 40% |  | 1300 nM |  |  | CN(Cc1ccon1)C(=O)c1ccc(N2CCC(OC3CCN(C(=O)[C@](O)(c4ccccc4)C(F)(F)F)CC3)CC2)cc1Cl [Example 4-15, 2-chloro-N-(isoxazol-3-yl-methyl)-N-methyl-4-[4-({1-[(2R)-3,3,3-trifluoro-2-hydroxy-2-phenylpropanoyl]piperidin-4-yl}oxy)piperidin-1-yl]benzamide] |
| 118% | 64 nM | 12% |  | 1020 nM |  |  | CN(C)C(=O)c1ccc(N2CCC(CC3CCN(C(=O)[C@@](O)(c4cccc(Br)c4)C(F)(F)F)CC3)CC2)nc1Cl [Example 7-68, 6-[4-({1-[(2S)-2-(3-bromophenyl)-3,3,3-trifluoro-2-hydroxypropanoyl]piperidin-4-yl}methyl)piperidin-1-yl]-2-chloro-N,N-dimethylpyridine-3-carboxamide] |
| 99% | 208 nM | 11% | NO IP |  |  |  | COc1cccc([C@](N)(C(=O)N2CCC(CC3CCN(c4ccc(C(=O)N(C)C)c(Cl)c4)CC3)CC2)C(F)(F)F)c1 [Example 2-119, 4-[4-({1-[(2S)-2-amino-3,3,3-trifluoro-2-(3-methoxy-phenyl)propanoyl]piperidin-4-yl}methyl)piperidin-1-yl]-2-chloro-N,N-dimethyl-benzamide] |
| 44% | 20 nM | 6% | NO IP |  |  |  | COc1cccc([C@@](O)(C(=O)N2CCC(CC3CCN(c4ccc(C(=O)N(C)C)c(C)c4)CC3)CC2)C(F)(F)F)c1 [Example 2-158, N,N,2-trimethyl-4-[4-({1-[(2R)-3,3,3-trifluoro-2-hydroxy-2-(3-methoxyphenyl)propanoyl]piperidin-4-yl}methyl)piperidin-1-yl]benzamide] |
| 65% | 12 nM | 24% |  | 120 nM |  |  | CCc1cccc([C@@](O)(C(=O)N2CCC(CC3CCN(c4ccc(C(=O)NC)c(Cl)n4)CC3)CC2)C(F)(F)F)c1 [Example 7-148, 2-chloro-6-[4-({1-[(2R)-2-(3-ethylphenyl)-3,3,3-trifluoro-2-hydroxypropanoyl]piperidin-4-yl}methyl)piperidin-1-yl]-N-methylpyridine-3-carboxamide] |
| 75% | 722 nM | 5% | NO IP |  |  |  | CN(C)C(=O)c1ccc(N2CCC(CC3CCN(C(=O)[C@@](O)(c4cccc(C(F)(F)F)c4)C(F)(F)F)CC3)CC2)cc1Cl [Example 2-33, 2-chloro-N,N-dimethyl-4-{4-[(1-{(2S)-3,3,3-trifluoro-2-hydroxy-2-[3-(trifluoromethyl)phenyl]propanoyl}piperidin-4-yl)methyl]piperidin-1-yl}benzamide] |
|  |  |  |  |  | 75% | 16% | CN(C)C(=O)c1ccc(N2CCC(CC3CCN(C(=O)[C@](O)(c4ccccc4)C(F)(F)F)CC3)CC2)cc1Cl [Example 2-43, 2-chloro-N,N-dimethyl-4-[4-({1-[(2R)-3,3,3-trifluoro-2-hydroxy-2-phenyl-propanoyl]piperidin-4-yl}methyl)piperidin-1-yl]benzamide] |
